This assay concerns SN12K1 renal. Briefly: DTP human tumour cell line panel, 48 h.

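Test compounds were applied to cells in 96-well plates for 48 hours at 5 doses. TGI marks complete inhibition of growth.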

The compound `O=NNc1cnccn1` showed a TGI of over 1250 µM.

(Values after PubChem BioAssay (NCI).)
